In PubChem BioAssay AID1419 (Emory University Molecular Libraries Screening Center, 2008):
Activity calls are given as the source filed them. No rule for the calls is given here.

Experiment: blockers of an Epstein-Barr virus protein-peptide interaction – biochemical, fluorescence polarization, dose response (AID 1419)
Conditions: cell-free protein-peptide binding, 2 h; for fold change: measured here: P channel fold over control, at 54 µM

Row | SMILES | IC50 | fold change
1 | Nc1ccc2nc3c(=O)n(CCc4ccccc4)c(=O)[nH]c3nc2c1 | < 0.42 µM | 94.8
2 | CN1CC=C2C(C#N)=C(N)C(C#N)(C#N)[C@H](c3cccc(Cl)c3)C2C1 (stereo partly drawn) | 3.17 µM | 4.79
3 | CC(C)(C)N1CC(c2nc3ccccc3n2CCOc2ccccc2)CC1=O (stereo not drawn) | 15.4 µM | 1.08
4 | C=CCc1cccc2cc(C(=O)Nc3ccc(S(=O)(=O)Nc4nnc(CC)s4)cc3)c(=O)oc12 | > 54 µM (inactive) | 1.08
5 | CC1CCCN(c2nc3ccccc3nc2C(C#N)S(=O)(=O)c2ccccc2)C1 (stereo not drawn) | > 54 µM (inactive) | 1.37
6 | O=C1N=c2ccccc2=C1c1sc(Nc2ccc(O)cc2)nc1O | 1.88 µM | 0.2
7 | COc1ccc(N=C2S/C(=C\c3ccc(OCC(=O)O)cc3)C(=O)N2CCc2c[nH]c3ccccc23)cc1 | 1.88 µM | 1.05
8 | c1ccc(-c2ccnc3nc(N4CCN(c5ccccc5)CC4)nn23)cc1 | > 54 µM (inactive) | 0.987
9 | Cc1ccc(C)c(-n2c3nc(=O)[nH]c(=O)c-3cc3cc([N+](=O)[O-])ccc32)c1 | 8.3 µM | 2.52
10 | CN(C)c1ccc(/C=c2/sc3n(c2=O)NC2(c4ccccc4)N(C)C(=O)N(C)C2(c2ccccc2)N=3)cc1 (stereo not drawn) | > 54 µM (inactive) | 5.21
11 | Nn1c(SCC(=O)NC(=O)NCc2ccco2)nnc1-c1ccc(OC(F)F)cc1 | 31.1 µM (inactive) | 1.09
12 | CCCCn1nc(-c2ccccc2)c2nc3ccccc3nc21 | 3.13 µM | 22.6
13 | CCn1c(CSc2nccn2C)nc2cc(C(=O)O)ccc21 | 13 µM | 2.34
14 | Cc1cc([N+](=O)[O-])ccc1-c1ccc(/C=N/NC(=O)Cc2ccccc2)o1 | 6.04 µM | 10.6
15 | Cc1cc(C=C2C(=O)c3ccccc3C2=O)c(C)n1-c1ccc(Cl)cc1 | 8.5 µM | 6.3
16 | CCN(CC)c1ccc2cc(S(=O)(=O)c3ccc(Cl)cc3)c(=O)oc2c1 | 6.12 µM | 98.4
17 | COC(=O)CN1C(=O)N(c2ccccc2)C(N(O)C(=O)Nc2ccccc2)C1(C)C (stereo not drawn) | > 54 µM (inactive) | 1
18 | CCCn1nc(-c2ccccc2)c2nc3ccccc3nc21 | 2.37 µM | 32
19 | Cc1ccc(NC(=O)/C(C#N)=C(\N)C(Cl)(Cl)Cl)nc1 | 0.53 µM | 13
20 | CC(=O)c1ccc(NC(=O)CSc2ccsc2[N+](=O)[O-])cc1 | > 54 µM (inactive) | 1.06

Row | SMILES | IC50 | fold change
21 | COc1ccc(S(=O)(=O)c2c(N)n(Cc3ccco3)c3nc4ccccc4nc23)cc1 | 9.62 µM | 1.74
22 | Cc1ccc(-c2cn3nc(-c4ccccc4)c(-c4ccccc4)nc3n2)cc1 | 1.31 µM | 37.6
23 | Cc1cc(-c2ccccc2)c(C#N)c(=S)[nH]1 | > 54 µM (inactive) | 1.04
24 | CC(=O)OCCCNc1cc(Sc2nc3ccccc3s2)c2nonc2c1[N+](=O)[O-] | 9.79 µM | 4.44
25 | CC1(c2ccc3noc(-c4ccc(F)cc4)c3c2)OCCO1 | 1.53 µM | 3.53
26 | CCCCOc1[nH]c2nc(-c3ccco3)n(Cc3ccco3)c(=N)c2c1C#N | > 54 µM (inactive) | 1.17
27 | O=C(NCCCn1ccnc1)c1ccc2c(c1)OCCO2 | > 54 µM (inactive) | 1.03
28 | Cc1cc(/C=C2\SC(=S)N(Cc3ccco3)C2=O)c(C)n1-c1ccccc1 | 7.24 µM | 4.81
29 | COC(=O)c1ccc2c(c1)SC1=C(CCCC1=O)N2 | 1.44 µM | 3.08
30 | COCCCn1c(=NC(=O)c2ccccc2)c(C#N)cc2c(=O)n3cccc(C)c3nc21 | 3.88 µM | 4.43
31 | O=C1NC(=O)N(Cc2ccco2)C(=O)/C1=C/c1ccc(-c2cccc([N+](=O)[O-])c2)o1 | 16.5 µM | 2.15
32 | COC(=O)c1ccccc1NC(=O)CCS(=O)(=O)c1ccc(Br)cc1 | 12.2 µM | 1.08
33 | O=C1c2cccc3c([N+](=O)[O-])ccc(c23)C(=O)N1CC1CCCO1 (stereo not drawn) | 13.8 µM | 2.37
34 | COc1ccc(-n2c(C)cc(/C=C3/SC(=S)N(C)C3=O)c2C)cc1 | 23.5 µM | 7.53
35 | O=[N+]([O-])c1ccc(Sc2cccc3cccnc23)c2cccnc12 | 29.5 µM | 2.58
36 | CC(C)OC(=O)CC(=O)c1sc2nc3c(cc2c1N)CN(C)CC3 | > 54 µM (inactive) | 1.29
37 | CCSc1cc(N2CCCC2)nc(-c2ccccc2Cl)n1 | 45.7 µM (inactive) | 1.05
38 | O=C1c2cccc3cc([N+](=O)[O-])cc(c23)C(=O)N1/N=C/c1ccc(O)cc1O | 10 µM | 0.933
39 | O=S(=O)([N-]c1nc2ccccc2nc1-[n+]1ccc(-c2ccncc2)cc1)c1ccccc1 | 9.13 µM | 3.54
